Patent publication US12065436B2, “Cardiac sarcomere inhibitors” (Cytokinetics, Inc., priority 2018, dated 2024)

Target: bovine cardiac myofibrils (full-length cardiac myosin ATPase in the native sarcomere) (Bos taurus (Bovine), UniProt Q9BE39)
Experiment: Skinned bovine cardiac myofibril ATPase assay (PK/LDH-coupled)
Type: biochemical
Details: Ca2+ activating to 75% of maximal rate; for CDMF75 IC15: concentration giving 15% inhibition; for IC50: read-out: CDMF75 IC50
Outline: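 Inhibition of steady-state ATPase read at 340 nm through a PK/LDH-coupled NADH system (0.5 mM NADH, 1.5 mM PEP). Detergent-skinned bovine cardiac myofibrils, 1 mg/mL, were tested at pH 6.8 in PIPES/MgCl2 with 50 μM ATP and calcium adjusted to give pCa50 or pCa75 activation.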

Chain of bovine cardiac myofibrils (full-length cardiac myosin ATPase in the native sarcomere) (Q9BE39 whole entry): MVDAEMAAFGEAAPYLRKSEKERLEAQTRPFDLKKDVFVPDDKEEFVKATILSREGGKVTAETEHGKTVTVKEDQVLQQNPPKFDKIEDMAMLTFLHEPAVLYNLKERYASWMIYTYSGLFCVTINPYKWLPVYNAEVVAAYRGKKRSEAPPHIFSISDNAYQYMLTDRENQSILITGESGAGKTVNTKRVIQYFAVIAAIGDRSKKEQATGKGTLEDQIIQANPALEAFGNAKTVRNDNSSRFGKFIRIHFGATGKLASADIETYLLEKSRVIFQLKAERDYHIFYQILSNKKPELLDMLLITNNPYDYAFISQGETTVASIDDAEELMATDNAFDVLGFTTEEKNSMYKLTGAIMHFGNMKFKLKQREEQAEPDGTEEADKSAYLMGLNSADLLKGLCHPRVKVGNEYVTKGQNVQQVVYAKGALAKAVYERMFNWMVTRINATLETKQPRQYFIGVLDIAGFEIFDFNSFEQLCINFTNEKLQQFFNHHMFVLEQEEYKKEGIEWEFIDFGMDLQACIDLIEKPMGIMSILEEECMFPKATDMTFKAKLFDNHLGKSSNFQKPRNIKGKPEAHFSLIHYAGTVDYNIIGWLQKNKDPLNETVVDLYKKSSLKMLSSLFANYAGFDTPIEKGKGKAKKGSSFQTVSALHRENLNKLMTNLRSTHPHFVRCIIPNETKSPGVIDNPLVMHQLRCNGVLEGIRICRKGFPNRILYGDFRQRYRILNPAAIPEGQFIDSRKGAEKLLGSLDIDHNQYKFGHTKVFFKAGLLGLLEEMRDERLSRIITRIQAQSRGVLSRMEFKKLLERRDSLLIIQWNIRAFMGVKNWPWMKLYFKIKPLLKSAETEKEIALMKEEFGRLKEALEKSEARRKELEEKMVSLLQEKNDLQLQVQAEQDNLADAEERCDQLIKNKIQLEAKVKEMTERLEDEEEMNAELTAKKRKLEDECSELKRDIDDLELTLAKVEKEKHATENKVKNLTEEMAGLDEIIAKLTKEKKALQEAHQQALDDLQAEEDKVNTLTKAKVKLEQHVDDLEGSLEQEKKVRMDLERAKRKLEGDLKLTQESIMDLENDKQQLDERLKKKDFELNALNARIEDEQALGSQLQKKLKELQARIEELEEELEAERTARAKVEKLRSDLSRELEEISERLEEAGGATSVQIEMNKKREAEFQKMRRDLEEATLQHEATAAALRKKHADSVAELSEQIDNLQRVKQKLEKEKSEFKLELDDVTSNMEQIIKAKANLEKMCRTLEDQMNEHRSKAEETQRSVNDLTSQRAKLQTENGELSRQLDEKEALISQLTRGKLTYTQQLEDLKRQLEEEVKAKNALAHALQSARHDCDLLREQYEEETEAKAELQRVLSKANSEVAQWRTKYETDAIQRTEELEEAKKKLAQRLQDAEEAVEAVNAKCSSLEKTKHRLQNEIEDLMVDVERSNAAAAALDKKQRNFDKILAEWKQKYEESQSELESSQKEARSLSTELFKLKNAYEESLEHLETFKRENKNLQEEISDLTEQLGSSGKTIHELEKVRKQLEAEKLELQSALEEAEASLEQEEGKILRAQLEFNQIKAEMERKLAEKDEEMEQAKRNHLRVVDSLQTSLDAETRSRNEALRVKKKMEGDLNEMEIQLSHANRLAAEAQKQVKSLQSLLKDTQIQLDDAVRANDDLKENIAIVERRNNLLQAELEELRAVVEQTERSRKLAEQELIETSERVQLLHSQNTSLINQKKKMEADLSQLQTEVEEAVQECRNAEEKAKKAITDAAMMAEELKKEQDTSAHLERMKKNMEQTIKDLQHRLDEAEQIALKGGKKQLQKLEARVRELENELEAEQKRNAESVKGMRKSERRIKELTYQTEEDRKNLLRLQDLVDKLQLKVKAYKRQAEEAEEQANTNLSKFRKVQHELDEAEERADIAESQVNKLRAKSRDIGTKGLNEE
Chain of bovine cardiac myofibrils (full-length cardiac myosin ATPase in the native sarcomere) (P85100 whole entry partner): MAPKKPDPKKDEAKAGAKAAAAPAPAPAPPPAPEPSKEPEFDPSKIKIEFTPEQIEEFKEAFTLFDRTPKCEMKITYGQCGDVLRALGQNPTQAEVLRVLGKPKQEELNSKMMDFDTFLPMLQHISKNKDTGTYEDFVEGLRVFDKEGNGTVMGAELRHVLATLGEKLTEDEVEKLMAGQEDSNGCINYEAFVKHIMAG
Chain of bovine cardiac myofibrils (full-length cardiac myosin ATPase in the native sarcomere) (Q3SZE5 whole entry partner): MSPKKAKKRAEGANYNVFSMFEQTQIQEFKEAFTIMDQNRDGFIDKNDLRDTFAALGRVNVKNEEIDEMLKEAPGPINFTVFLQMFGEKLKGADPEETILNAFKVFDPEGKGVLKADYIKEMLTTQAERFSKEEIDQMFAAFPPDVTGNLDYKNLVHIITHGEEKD

CDMF75 IC15	IC50	SMILES
3.5 µM	15.2 µM	C[C@@H](O)Cn1cc(C(=O)N[C@@H]2CCc3cc(-c4noc(C5CC5)n4)ccc32)cn1 [Compound 576, N-((R)-5-(5-cyclopropyl-1,2,4-oxadiazol-3-yl)-2,3-dihydro-1H-inden-1-yl)-1-((R)-2-hydroxypropyl)-1H-pyrazole-4-carboxamide]
0.4 µM	1 µM	Cc1ncoc1C(=O)N[C@@H]1CCc2cc(-c3noc(C4CC4)n3)ccc21 [Compound 390, (R)-N-(5-(5-cyclopropyl-1,2,4-oxadiazol-3-yl)-2,3-dihydro-1H-inden-1-yl)-4-methyloxazole-5-carboxamide]
0.3 µM	1.1 µM	CCc1nc(-c2ccc3c(c2)CC[C@H]3NC(=O)c2nnc(C)o2)no1 [Compound 618, (R)-N-(5-(5-ethyl-1,2,4-oxadiazol-3-yl)-2,3-dihydro-1H-inden-1-yl)-5-methyl-1,3,4-oxadiazole-2-carboxamide]
0.5 µM	2.1 µM	CCc1nc(-c2ccc3c(c2)CC[C@H]3NC(=O)c2ncco2)no1 [Compound 593, (R)-N-(5-(5-ethyl-1,2,4-oxadiazol-3-yl)-2,3-dihydro-1H-inden-1-yl)oxazole-2-carboxamide]
1.6 µM	6.8 µM	Cc1cc(-c2ccc3c(c2)OC[C@H]3NC(=O)c2nnn(C)n2)no1 [Compound 364, (S)-2-methyl-N-(6-(5-methylisoxazol-3-yl)-2,3-dihydrobenzofuran-3-yl)-2H-tetrazole-5-carboxamide]
0.5 µM	2.5 µM	CCc1nc(-c2ccc3c(c2)CC[C@H]3NC(=O)c2ccon2)no1 [Compound 585, (R)-N-(5-(5-ethyl-1,2,4-oxadiazol-3-yl)-2,3-dihydro-1H-inden-1-yl)isoxazole-3-carboxamide]
1.8 µM	7 µM	COCc1nc(-c2ccc3c(c2)CC[C@H]3NC(=O)c2cnn(CCO)c2C)no1 [Compound 694, (R)-1-(2-hydroxyethyl)-N-(5-(5-(methoxymethyl)-1,2,4-oxadiazol-3-yl)-2,3-dihydro-1H-inden-1-yl)-5-methyl-1H-pyrazole-4-carboxamide]
0.7 µM	2.9 µM	CCc1nc(-c2ccc3c(c2)CC[C@H]3NC(=O)c2cnn(C[C@H](O)CO)c2)no1 [Compound 540, N-[(1R)-5-(5-ethyl(1,2,4-oxadiazol-3-yl))indanyl][1-((2S)-2,3-dihydroxypropyl)pyrazol-4-yl]carboxamide]
0.7 µM	2.1 µM	CCc1nc(-c2ccc3c(c2)CC[C@H]3NC(=O)c2cn(CCCO)nc2C)no1 [Compound 612, (R)-N-(5-(5-ethyl-1,2,4-oxadiazol-3-yl)-2,3-dihydro-1H-inden-1-yl)-1-(3-hydroxypropyl)-3-methyl-1H-pyrazole-4-carboxamide]
0.5 µM	1.8 µM	Cc1cc(C(=O)N[C@@H]2CCc3cc(-c4noc(C5CCC5)n4)ccc32)ccn1 [Compound 412, (R)-N-(5-(5-cyclobutyl-1,2,4-oxadiazol-3-yl)-2,3-dihydro-1H-inden-1-yl)-2-methylisonicotinamide]
3.2 µM	13.8 µM	CC(=O)N[C@@H]1CCc2cc(-c3noc(C)n3)ccc21 [Compound 407, (R)-N-(5-(5-methyl-1,2,4-oxadiazol-3-yl)-2,3-dihydro-1H-inden-1-yl)acetamide]
0.2 µM	0.8 µM	CCc1nc(-c2ccc3c(c2)CC[C@H]3NC(=O)c2nonc2C)no1 [Compound 633, (R)-N-(5-(5-ethyl-1,2,4-oxadiazol-3-yl)-2,3-dihydro-1H-inden-1-yl)-4-methyl-1,2,5-oxadiazole-3-carboxamide]
2.2 µM	13.5 µM	CCc1nc(-c2ccc3c(c2)OCCC3NC(=O)c2cnn(C)c2)no1 (stereo not shown) [Compound 534, N-(7-(5-ethyl-1,2,4-oxadiazol-3-yl)chroman-4-yl)-1-methyl-1H-pyrazole-4-carboxamide]
0.8 µM	3.4 µM	O=C(N[C@@H]1CCc2cc(-c3noc(C(F)F)n3)ccc21)c1cc(CO)ccn1 [Compound 666, (R)-N-(5-(5-(difluoromethyl)-1,2,4-oxadiazol-3-yl)-2,3-dihydro-1H-inden-1-yl)-4-(hydroxymethyl)picolinamide]

Further lines, the compound ahead of its results:

SMILES	CDMF75 IC15	IC50
COC(=O)N[C@@H]1CCc2cc(-c3noc(C(C)C)n3)ccc21 [Compound 307, methyl (R)-(5-(5-isopropyl-1,2,4-oxadiazol-3-yl)-2,3-dihydro-1H-inden-1-yl)carbamate]	0.6 µM	2.9 µM
[2H]C([2H])([2H])c1noc(-c2ccc3c(c2)OC[C@H]3NC(=O)c2cnn(C)c2)n1 [Compound 311, (S)-1-methyl-N-(6-(3-(methyl-d3)-1,2,4-oxadiazol-5-yl)-2,3-dihydrobenzofuran-3-yl)-1H-pyrazole-4-carboxamide]	1.8 µM	6.3 µM
Cc1cc(C(=O)N[C@@H]2CCc3cc(-c4cc(C(F)F)no4)ccc32)ccn1 [Compound 171, (R)-N-(5-(3-(difluoromethyl)isoxazol-5-yl)-2,3-dihydro-1H-inden-1-yl)-2-methylisonicotinamide]	1.7 µM	6.9 µM
Cc1cc(C(=O)N[C@@H]2CCc3cc(-c4nc(C(F)F)no4)ccc32)ccn1 [Compound 133, (R)-N-(5-(3-(difluoromethyl)-1,2,4-oxadiazol-5-yl)-2,3-dihydro-1H-inden-1-yl)-2-methylisonicotinamide]	1.5 µM	5.7 µM
Cc1nc(-c2ccc3c(c2)CC[C@H]3NC(=O)c2cnn(C)c2)no1 [Compound 66, (R)-1-methyl-N-(5-(5-methyl-1,2,4-oxadiazol-3-yl)-2,3-dihydro-1H-inden-1-yl)-1H-pyrazole-4-carboxamide]	1.2 µM	4.5 µM
Cc1nc(-c2ccc3c(c2)CCC3NC(=O)Nc2ncccn2)no1 (stereo not shown) [Compound 110, 1-(5-(5-methyl-1,2,4-oxadiazol-3-yl)-2,3-dihydro-1H-inden-1-yl)-3-(pyrimidin-2-yl)urea]	39.2 µM	> 39.2 µM
O=C(N[C@@H]1CCc2cc(-c3noc(C(F)F)n3)ccc21)OC1CCC1 [Compound 281, cyclobutyl (R)-(5-(5-(difluoromethyl)-1,2,4-oxadiazol-3-yl)-2,3-dihydro-1H-inden-1-yl)carbamate]	0.9 µM	> 39.2 µM
Cc1nn(C)cc1C(=O)N[C@@H]1COc2cc(-c3noc(C(F)F)n3)ccc21 [Compound 208, (S)-N-(6-(5-(difluoromethyl)-1,2,4-oxadiazol-3-yl)-2,3-dihydrobenzofuran-3-yl)-1,3-dimethyl-1H-pyrazole-4-carboxamide]	0.5 µM	1.6 µM
Cc1nn(C)cc1C(=O)NC1CCc2cc(-c3noc(C(C)C)n3)ccc21 (stereo not shown) [Compound 75, N-(5-(5-isopropyl-1,2,4-oxadiazol-3-yl)-2,3-dihydro-1H-inden-1-yl)-1,3-dimethyl-1H-pyrazole-4-carboxamide]	0.9 µM	3.1 µM
CCc1nc(-c2ccc3c(c2)CC[C@H]3NC(=O)[C@H]2CCC(=O)N2)no1 [Compound 335, (R)-N-((R)-5-(5-ethyl-1,2,4-oxadiazol-3-yl)-2,3-dihydro-1H-inden-1-yl)-5-oxopyrrolidine-2-carboxamide]	19.1 µM	> 39.2 µM
Cc1noc(-c2ccc3c(c2)CC[C@H]3NC(=O)c2cnn(C)c2)n1 [Compound 263, (R)-1-methyl-N-(5-(3-methyl-1,2,4-oxadiazol-5-yl)-2,3-dihydro-1H-inden-1-yl)-1H-pyrazole-4-carboxamide]	2.8 µM	10.5 µM
Cc1nc(-c2ccc3c(c2)CCC3NC(=O)Nc2cncnc2)no1 (stereo not shown) [Compound 96, 1-(5-(5-methyl-1,2,4-oxadiazol-3-yl)-2,3-dihydro-1H-inden-1-yl)-3-(pyrimidin-5-yl)urea]	3.0 µM	13.4 µM
Cc1ccnc(C(=O)NC2CCc3cc(-c4noc(C(F)F)n4)ccc32)c1 (stereo not shown) [Compound 67, N-(5-(5-(difluoromethyl)-1,2,4-oxadiazol-3-yl)-2,3-dihydro-1H-inden-1-yl)-4-methylpicolinamide]	0.9 µM	4.7 µM
Cc1noc(-c2ccc3c(c2)OC[C@H]3NC(=O)c2cnn(C)c2C)n1 [Compound 343, (S)-1,5-dimethyl-N-(6-(3-methyl-1,2,4-oxadiazol-5-yl)-2,3-dihydrobenzofuran-3-yl)-1H-pyrazole-4-carboxamide]	1.8 µM	6.6 µM
Cc1nc(C)c(C(=O)NC2CCc3cc(-c4noc(C(F)F)n4)ccc32)o1 (stereo not shown) [Compound 19, N-(5-(5-(difluoromethyl)-1,2,4-oxadiazol-3-yl)-2,3-dihydro-1H-inden-1-yl)-2,4-dimethyloxazole-5-carboxamide]	1.3 µM	4.6 µM
Cc1nn(C)cc1C(=O)NC1COc2cc(-c3noc(C(F)F)n3)ccc21 (stereo not shown) [Compound 207, N-(6-(5-(difluoromethyl)-1,2,4-oxadiazol-3-yl)-2,3-dihydrobenzofuran-3-yl)-1,3-dimethyl-1H-pyrazole-4-carboxamide]	1.0 µM	3.6 µM
Cc1nc(-c2ccc3c(c2)OC[C@H]3NC(=O)c2oc(C)nc2C)no1 [Compound 161, (S)-2,4-dimethyl-N-(6-(5-methyl-1,2,4-oxadiazol-3-yl)-2,3-dihydrobenzofuran-3-yl)oxazole-5-carboxamide]	1.1 µM	4.4 µM
Cn1nccc1C(=O)N[C@@H]1CCc2cc(-c3noc(C(F)F)n3)ccc21 [Compound 92, (R)-N-(5-(5-(difluoromethyl)-1,2,4-oxadiazol-3-yl)-2,3-dihydro-1H-inden-1-yl)-1-methyl-1H-pyrazole-5-carboxamide]	0.3 µM	0.8 µM
